Experiment [1] concerns S. carnosus TM300. In words: Agar diffusion bioactivity assay with lipids in flanking wells. As to conditions: S. carnosus TM300 on BHI agar, overnight. Format: cell-based, Staphylococcus carnosus. The procedure: For agar diffusion antimicrobial activity assays, the autoclaved 1.5% agar was prepared in the appropriate medium and cooled in a 40°C water bath for 15 min. A total of 50 μL overnight culture of the sensitive strain was added to the agar and kept in the water bath. A total of 25 mL seeded agar was poured into a sterile OmniTray (Nunc) and allowed to solidify at room temperature for 30 min. An additional 35 mL of seeded agar was poured over the lower solidified agar layer. A sterile 96-well PCR plate was placed in the molten agar upper layer, and the agar was allowed to solidify at 25°C for 30 min. After sufficient solidification, the 96-well PCR plate was removed. Then 20 μL volume of each peptide was dispensed into the wells. Plates were left at 25°C for 30 min until the wells were dried, and the plates were incubated at 37°C overnight. The antibacterial activity was determined by the presence or absence of growth inhibition.
Figure S5. (A) Zones of growt h inhibition of epilancin 15X a nd nisin A against S. carnosus TM30 0 grown on BHI agar plates. The indicated amounts of antibiotics were placed in the well shown in the center of the zone of inhibition. […]
A general note: Agar diffusion results depend on both activity and mobility in agar.

Experiment [2] can be described thus: Liposome leakage assay using flow cytometry (HaloTag / AF488 ligand). Format: biochemical. Particulars: 1 μM peptide, 37°C, 1 h. For orientation: Flow cytometry measures light scatter and fluorescence of single cells or particles in a stream.
The test system of experiment [3] is RNA biosynthesis in S. carnosus TM300. The experiment is described as follows: Macromolecular synthesis assay: 3H-uridine incorporation into RNA. Format: cell-based, Staphylococcus carnosus. Particulars: S. carnosus TM300, 2× MIC, three independent experiments. The procedure:
(§1) Radiolabel incorporation experiments were carried out similarly as previously described but using S. carnosus ([Wu et al., 2019]). The OD600 of parallel nonradioactive cultures was measured at each time point to normalize the measured radioactivity and minimize effects due to cell death and growth inhibition. The radiolabeled reagents and their corresponding positive and negative antibiotic controls were as follows. […] All experiments were conducted independently three times.
(§2) Figure S3. Thre e in de pen den t ex perime nts of incorporation of (A) 14C- acetic acid into fatty acids, (B) 14C- thymi din e into D NA, (C) 3H-uridi ne into RNA, (D) 14C- lab el ed ami no acids into protei n, and (E) 14C- label ed GlcNAc into cell w all in S. carnosus TM300 cells treated with vario u s antimicro bia l agents. T he p ercent i nco rpo ratio n at 0 min was measured after incubati ng the cel l cultur e with 0.8 μCi/mL radioactive precursors for 15 min. Then 0.5x, 1x, 2x, or 4x MIC epilanci n 15X and 2x MIC controls were added to the cell cultur e (t=0), and t he percent incorporation was measur ed ov er time. Positive controls a re gr een and negative controls are black (cells o nly) an d blu e (co mpo und w ith mo d e o f actio n unr elate d to th e a ssay i n que stio n). […]

The test system of experiment [4] is S. carnosus TM300. In words: Membrane potential study with DiOC2 (flow cytometry). Format: cell-based, Staphylococcus carnosus. Particulars: S. carnosus TM300, 20 min, 0.5x, 1x, 4x MIC, n = 3. The procedure:
Cultures of S. carnosus TM300 were grown to OD600 1.0 and diluted to OD600 0.1 in fresh BHI medium. The culture was then combined with 30 μM 3,3′-diethyloxacarbocyanine (DiOC2, ThermoFisher D14730) and incubated for 20 min. […] Another two tubes were prepared without antibiotic treatment as controls. The culture was analyzed with a BD Biosciences LSR II flow cytometer using excitation at 488 nm with an argon laser and measurement of emission through a band-pass filter at 616/20 nm. A minimum of 30,000 events were detected for each sample. The experiment was repeated three times, and the mean red/green fluorescence ratio was determined.

Experiment [5] has as its system cell wall biosynthesis in S. carnosus TM300. The experiment is described as follows: Macromolecular synthesis assay: 14C-N-acetyl-D-glucosamine incorporation into cell wall. Particulars: S. carnosus TM300, three independent experiments. Format: cell-based, Staphylococcus carnosus. The procedure: as §1, §2

Take Epilancin 15X: in experiment [1], the “antagonism of bioactivity (zone of growth inhibition) by purified S. aureus LTA” value is “antagonized”. The “fluorescence signal (pore formation)” value in experiment [2] (POPC-cholesterol liposomes with 0.1% lipid II) is given as “did not induce pore formation”. The “fluorescence signal (pore formation) compared to buffer control” value in experiment [2] (POPC-cholesterol liposomes without lipid II) was “no increase in fluorescence signal”. Moreover, in experiment [3], the “RNA biosynthesis (3H-uridine incorporation)” value is on record as “considerably stronger effect than that observed with the respective negative controls”. Besides, the “red/green fluorescence ratio of DiOC2 (membrane potential)” value in experiment [4] is reported as “increase”. In experiment [5], the “cell wall biosynthesis (14C-N-acetyl-D-glucosamine incorporation)” value was “no clear change”.
